Source: patent US6310091A, “Fungicidal saponin, CAY-1, and isolation thereof from Capsium species fruit” (The United States of America as represented by the …, priority 2000, dated 2001)
Several values for one entry are separate records, joined by “and”; a condition that tells them apart may be missing. Equal entries are not always repeated. Where two headings read alike, the source gives them in different places.

How the values were obtained:
Pneumocystis carinii = experiment: Effect on Pneumocystis carinii viability (ATP-driven bioluminescent assay); assay type: cell-based; settings: for activity at 10 µM / activity at 2.5 µM / activity at 5 µM / activity at 20 µM / activity at 40 µM / activity at 80 µM: read-out: Percent of Control Mean; for activity at 2.5 µM: 3.2 μg/ml; for activity at 5 µM: 6.3 μg/ml; for activity at 20 µM: 25 μg/ml; for activity at 40 µM: 50 μg/ml; for activity at 80 µM: 100 μg/ml
Protocol: 3. Pneumocystis carinii. The effect of CAY-1 on Pneumocystis carinii was determined as described previously [Cushion et al., Antimicrob. Agents Chemother., 1997, 41:379-384, herein incorporated by reference]. This assay is based on an ATP-driven bioluminescent reaction and was used to determine the concentration of CAY-1 which decreased the P. carinii ATP pools.

Aspergillus flavus = experiment: Fungicidal bioassay on nongerminated and germinating conidia of A. flavus; assay type: cell-based; settings: for activity at 2 µM / activity at 3 µM / activity at 4 µM / activity at 5 µM / activity at 7.5 µM / activity at 10 µM / activity at 1 µM / activity at 2.5 µM: read-out: Percent of Mean Control
Protocol: 1. Filamentous fungi. Filamentous fungi used in bioassays included Aspergillus flavus, A. fumigatus, A. niger, A. parasiticus and Fusarium oxysporum. The fungicidal properties of CAY-1 for the nongerminated and germinating conidia of these fungi were determined separately as described by De Lucca et al. [Med. Mycol., 36:291-298 (1998)] and De Lucca et al. [Antimicrob. Agents Chemother. 43:371-373 (1999)]. […] Two separate experiments were conducted in each medium (n=8 per medium).
A suspension of the aforementioned fungi were prepared separately in the appropriate medium. Conidia (10^4 conidia/ml) were used immediately for the nongerminated conidial assays while conidia (10^5 conidia/ml) were incubated for 7.5 hours at 30° C. to obtain germinating conidia. Serial dilutions of CAY-1 were prepared in the appropriate medium (totaling 225 μl) to which was added 25 μl of the conidial suspensions. The control consisted of 225 μl of medium and 25 μl of the conidial suspension. After mixing, the samples were incubated for 30 min (30° C.). Samples were then spread on potato dextrose agar plates which were incubated at 30° C. for 24 hours. Colonies were then enumerated.
Statistical analyses. ANOVA analyses on ranks for nonparametric data were performed for the bioassays described in this example.

[1] = Pneumocystis carinii, 24 h, Day 1
[2] = Pneumocystis carinii, 48 h, Day 2
[3] = Pneumocystis carinii, 72 h, Day 3
[4] = Aspergillus flavus, 0.5 h, germinating, RPMI-1640
[5] = Aspergillus flavus, 0.5 h, nongerminated, RPMI-1640

CC1CCC2(OC1)OC1CC3C4CCC5CC(OC6OC(CO)C(OC7OC(CO)C(O)C(OC8OC(CO)C(O)C(OC9OC(CO)C(O)C(O)C9O)C8O)C7OC7OC(CO)C(O)C(O)C7O)C(O)C6O)C(O)CC5(C)C4CCC3(C)C1C2C (stereo not shown) [CAY-1]
effectiveness compared with pentamidine (Pneumocystis carinii; 25 and 50 μg/ml (20.2 and 40.3 μM) vs pentamidine 10 μg/ml, 29 μM): as, or more effective, than pentamidine
IC50 (Pneumocystis carinii; Pneumocystis carinii): 11.8 µg/mL and 9.5 µM
activity at 10 µM (Pneumocystis carinii; Pneumocystis carinii, 24 h): 43.1%
activity at 2.5 µM (Pneumocystis carinii; [1]): 94.7%
activity at 5 µM (Pneumocystis carinii; [1]): 70.1%
activity at 20 µM (Pneumocystis carinii; [1]): 18%
activity at 40 µM (Pneumocystis carinii; [1]): 10%
activity at 80 µM (Pneumocystis carinii; [1]): 3.1%
killing at 10 µM (Pneumocystis carinii; Pneumocystis carinii, 48 h, read-out: P. carinii killed): ≥ 34.6%
activity at 10 µM (Pneumocystis carinii; Pneumocystis carinii, 48 h): 11.8%
activity at 2.5 µM (Pneumocystis carinii; [2]): 98.2%
activity at 5 µM (Pneumocystis carinii; [2]): 56.9%
activity at 20 µM (Pneumocystis carinii; [2]): 5.5%
activity at 40 µM (Pneumocystis carinii; [2]): 2.2%
activity at 80 µM (Pneumocystis carinii; [2]): 0.9%
killing at 40.3 µM (Pneumocystis carinii; Pneumocystis carinii, 72 h, read-out: P. carinii cells killed): 93%
activity at 10 µM (Pneumocystis carinii; Pneumocystis carinii, 72 h): 12.1%
activity at 2.5 µM (Pneumocystis carinii; [3]): 99.8%
activity at 5 µM (Pneumocystis carinii; [3]): 46.6%
activity at 20 µM (Pneumocystis carinii; [3]): 3.3%
activity at 40 µM (Pneumocystis carinii; [3]): 1%
activity at 80 µM (Pneumocystis carinii; [3]): 0.3%
minimal effective concentration (Pneumocystis carinii; Pneumocystis carinii, read-out: concentration at which lethality begins): 5 µM
minimal effective concentration (Pneumocystis carinii; Pneumocystis carinii, read-out: lowest effective level in vitro): ~5 µM
activity at 2 µM (Aspergillus flavus; Aspergillus flavus, 0.5 h, germinating, 1% PDB, 2.0 μM): 90.1%
activity at 3 µM (Aspergillus flavus; Aspergillus flavus, 0.5 h, germinating, 1% PDB, 3.0 μM): 74.4%
activity at 4 µM (Aspergillus flavus; Aspergillus flavus, 0.5 h, germinating, 1% PDB, 4.0 μM): 54.2%
activity at 5 µM (Aspergillus flavus; Aspergillus flavus, 0.5 h, germinating, 1% PDB, 5.0 μM): 34.9%
activity at 7.5 µM (Aspergillus flavus; Aspergillus flavus, 0.5 h, germinating, 1% PDB, 7.5 μM): 11%
activity at 10 µM (Aspergillus flavus; Aspergillus flavus, 0.5 h, germinating, 1% PDB, 10.0 μM): 8.4%
activity at 1 µM (Aspergillus flavus; [4]): 132%
activity at 2.5 µM (Aspergillus flavus; [4]): 145%
activity at 5 µM (Aspergillus flavus; Aspergillus flavus, 0.5 h, germinating, RPMI-1640, 5.0 μM): 62.9%
activity at 7.5 µM (Aspergillus flavus; Aspergillus flavus, 0.5 h, germinating, RPMI-1640, 7.5 μM): 14%
activity at 10 µM (Aspergillus flavus; Aspergillus flavus, 0.5 h, germinating, RPMI-1640, 10.0 μM): 9%
activity at 2 µM (Aspergillus flavus; Aspergillus flavus, 0.5 h, nongerminated, 1% PDB, 2.0 μM): 102%
activity at 3 µM (Aspergillus flavus; Aspergillus flavus, 0.5 h, nongerminated, 1% PDB, 3.0 μM): 102%
activity at 4 µM (Aspergillus flavus; Aspergillus flavus, 0.5 h, nongerminated, 1% PDB, 4.0 μM): 103%
activity at 5 µM (Aspergillus flavus; Aspergillus flavus, 0.5 h, nongerminated, 1% PDB, 5.0 μM): 104%
activity at 7.5 µM (Aspergillus flavus; Aspergillus flavus, 0.5 h, nongerminated, 1% PDB, 7.5 μM): 106%
activity at 10 µM (Aspergillus flavus; Aspergillus flavus, 0.5 h, nongerminated, 1% PDB, 10.0 μM): 108%
activity at 1 µM (Aspergillus flavus; [5]): 88.6%
activity at 2.5 µM (Aspergillus flavus; [5]): 92.2%
activity at 5 µM (Aspergillus flavus; Aspergillus flavus, 0.5 h, nongerminated, RPMI-1640, 5.0 μM): 91.7%
activity at 7.5 µM (Aspergillus flavus; Aspergillus flavus, 0.5 h, nongerminated, RPMI-1640, 7.5 μM): 90.7%
activity at 10 µM (Aspergillus flavus; Aspergillus flavus, 0.5 h, nongerminated, RPMI-1640, 10.0 μM): 99.2%
LD95 (concentration lethal to 95% of conidia) (Aspergillus flavus; Aspergillus flavus, 0.5 h, read-out: LD95): 12.5 µM and 15.5 µg/mL
minimal effective concentration (Aspergillus flavus; Aspergillus flavus, 0.5 h, read-out: concentration lethal to germinating conidia): 7.5 µM and 9.3 µg/mL
concentration lethal to germinating conidia (Aspergillus flavus; germinating conidia, RPMI-1640, p=0.0187): 7.5 μM and 9.3 μg/ml
Mean No. of Colonies (Aspergillus flavus; germinating, 1% PDB, 2.0 μM): 139.8
Mean No. of Colonies (Aspergillus flavus; germinating, 1% PDB, 3.0 μM): 115.4
Mean No. of Colonies (Aspergillus flavus; germinating, 1% PDB, 4.0 μM): 84.1
Mean No. of Colonies (Aspergillus flavus; germinating, 1% PDB, 5.0 μM): 54.2
Mean No. of Colonies (Aspergillus flavus; germinating, 1% PDB, 7.5 μM): 17.1
Mean No. of Colonies (Aspergillus flavus; germinating, 1% PDB, 10.0 μM): 13.1
